In one assay the target is T1, NAMPT (Homo sapiens, UniProt P43490).
T1 construct: His tag; host or cells: E. coli
Description: Biochemical inhibition assay: NAMPT enzymatic reaction, NMN quantified by mass spectrometry. Particulars: read-out: Biochem IC50. In a few lines: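 Inhibition of E. coli-expressed His-tagged human NAMPT, measured as NMN formation by mass spectrometry after a 30 min room-temperature reaction containing 1 μM NAM, 100 μM PRPP and 2.5 mM ATP.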

The subject of a further assay is A2780 cells. As to the kind of experiment: In-vitro cell proliferation assay (SRB), A2780 cells. Type of assay: cell-based. The settings on record: Homo sapiens, A2780, 72 h, A2780 cells, 72 hours, read-out: A2780 IC50. The essentials: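 Viable cells measured by SRB staining after 6% TCA fixation, absorbance 570 nm. Media-only background subtracted; % inhibition derived at two compound concentrations.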

This is an account of results in patent publication US12336981B2, “Compounds and compositions for the inhibition of NAMPT” (Valo Health, Inc., priority 2010, dated 2025).

Where two headings read alike, the source gives them in different places.

T1 sequence (P43490 whole entry): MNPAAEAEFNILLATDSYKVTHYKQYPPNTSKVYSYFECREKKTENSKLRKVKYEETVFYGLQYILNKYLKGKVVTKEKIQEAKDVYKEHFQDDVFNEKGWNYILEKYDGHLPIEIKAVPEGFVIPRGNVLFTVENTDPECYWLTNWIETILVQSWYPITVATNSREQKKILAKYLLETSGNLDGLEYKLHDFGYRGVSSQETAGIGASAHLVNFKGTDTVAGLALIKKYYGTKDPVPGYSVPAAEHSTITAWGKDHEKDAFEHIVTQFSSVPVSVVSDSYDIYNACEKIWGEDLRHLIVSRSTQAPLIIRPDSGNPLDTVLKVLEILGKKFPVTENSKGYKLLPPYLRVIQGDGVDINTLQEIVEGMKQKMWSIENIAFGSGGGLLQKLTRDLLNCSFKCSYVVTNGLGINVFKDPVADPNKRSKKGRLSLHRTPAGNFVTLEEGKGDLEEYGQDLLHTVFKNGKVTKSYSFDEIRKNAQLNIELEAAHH

The term IC50 denotes the concentration needed to halve the response being measured. Consider `Cc1c(Cl)cccc1S(=O)(=O)c1ccc(CNC(=O)c2cnc3nccn3c2)cc1`, for which the figures for the IC50 at NAMPT (NAMPT enzymatic reaction) and with A2780 cells (SRB) were 4.3 nM and 26.5 nM, respectively.

Take `Cn1cc(S(=O)(=O)c2ccc(CNC(=O)c3ccc4nccn4c3)cc2)c(C(F)(F)F)n1` [N-({4-[1-methyl-3-(trifluoromethyl)-1H-pyrazole-4-sulfonyl]phenyl}methyl)imidazo[1,2-a]pyridine-6-carboxamide]: the IC50 at NAMPT (NAMPT enzymatic assay) amounted to 29.9 nM; in the assay with A2780 cells (SRB), 27.8 nM.

Turning to `O=C(NCc1ccc(S(=O)(=O)c2ccc(-n3cccn3)cc2F)cc1)c1cc2ccncc2s1` [N-[(4-{[2-fluoro-4-(1H-pyrazol-1-yl)benzene]sulfonyl}phenyl)methyl]thieno[2,3-c]pyridine-2-carboxamide], the results for the concentration for half-maximal inhibition (IC50) on NAMPT (NAMPT enzymatic reaction) and with A2780 cells (SRB assay) were 6 nM and 8 nM, respectively.

For `CCOc1ccc(Cl)cc1S(=O)(=O)c1ccc(CNC(=O)c2cnc3nccn3c2)cc1`, the results for the IC50 at NAMPT (NAMPT enzymatic reaction) and with A2780 cells (SRB) were 1.9 nM and 3.3 nM, respectively.

Turning to `COc1cc(C)c(S(=O)(=O)c2ccc(CNC(=O)c3cnc4[nH]ncc4c3)cc2)cc1C` [N-({4-[(4-methoxy-2,5-dimethylbenzene)sulfonyl]phenyl}methyl)-1H-pyrazolo[3,4-b]pyridine-5-carboxamide], the IC50 came to 36.8 nM at NAMPT (NAMPT enzymatic reaction) and 23.6 nM in the assay on A2780 cells (SRB).

Take `O=C(NCc1ccc(S(=O)(=O)c2ccc(OCC(F)(F)F)c(F)c2)cc1)c1cnc2[nH]ncc2c1` [N-[(4-{[3-fluoro-4-(2,2,2-trifluoroethoxy)benzene]sulfonyl}phenyl)methyl]-1H-pyrazolo[3,4-b]pyridine-5-carboxamide]: the figures for the IC50 at NAMPT (NAMPT enzymatic assay) and in the assay with A2780 cells (SRB) were 10.3 nM and 22.3 nM, respectively.

Take `CCN(CC)C(=O)c1ccc(F)c(S(=O)(=O)c2ccc(CNC(=O)c3cc4cnccc4[nH]3)cc2)c1`: the IC50 was found to be 38.4 nM on NAMPT (NAMPT enzymatic assay) and 26.2 nM in the assay on A2780 cells (SRB).

Consider `Cc1ccc(Cl)c(S(=O)(=O)c2ccc(CNC(=O)c3cnc4nccn4c3)cc2)c1Cl`, for which the IC50 at NAMPT (NAMPT enzymatic reaction) was found to be 7.3 nM; in the assay with A2780 cells (SRB), 56 nM.

Take `COc1ccc(F)c(S(=O)(=O)c2ccc(CNC(=O)c3cnc4[nH]ncc4c3)cc2)c1` [N-({4-[(2-fluoro-5-methoxybenzene)sulfonyl]phenyl}methyl)-1H-pyrazolo[3,4-b]pyridine-5-carboxamide]: the figures for the IC50 on NAMPT (NAMPT enzymatic reaction) and with A2780 cells (SRB) were 139 nM and 100 to 1000 nM, respectively.

As for `COc1cc(S(=O)(=O)c2ccc(CNC(=O)c3cc4ccncc4s3)cc2)ccc1Cl`, the results for the concentration for half-maximal inhibition (IC50) at NAMPT (NAMPT enzymatic reaction) and with A2780 cells (SRB) were 2.6 nM and 2.3 nM, respectively.

As to `O=C(NCc1ccc(S(=O)(=O)c2cccc(-c3ccc(F)c(F)c3)n2)cc1)c1cc2ccncc2s1` [N-({4-[6-(3,4-difluorophenyl)pyridine-2-sulfonyl]phenyl}methyl)thieno[2,3-c]pyridine-2-carboxamide], the IC50 on NAMPT (NAMPT enzymatic assay) was determined as 2.2 nM; in the assay on A2780 cells (SRB), 13.2 nM.

With `COc1ccc(F)c(F)c1S(=O)(=O)c1ccc(CNC(=O)c2cc3cnccc3[nH]2)cc1` [N-({4-[(2,3-difluoro-6-methoxybenzene)sulfonyl]phenyl}methyl)-1H-pyrrolo[3,2-c]pyridine-2-carboxamide], the values for the 50% inhibitory concentration (IC50) at NAMPT (NAMPT enzymatic reaction) and in the assay on A2780 cells (SRB) were 204 nM and 84.9 nM, respectively.

On to `Cc1cc(Cl)cnc1S(=O)(=O)c1ccc(CNC(=O)c2cnc3[nH]ncc3c2)cc1` [N-{[4-(5-chloro-3-methylpyridine-2-sulfonyl)phenyl]methyl}-1H-pyrazolo[3,4-b]pyridine-5-carboxamide], for which the IC50 on NAMPT (NAMPT enzymatic assay) was found to be 62.5 nM; in the assay with A2780 cells (SRB), 75.3 nM.

Consider `COc1ccc(S(=O)(=O)c2ccc(CNC(=O)c3cnc4nccn4c3)cc2)cc1Cl`, for which the IC50 at NAMPT (NAMPT enzymatic reaction) and in the assay with A2780 cells (SRB) was 1.8 nM in each case.

As for `COc1cc(C)c(S(=O)(=O)c2ccc(CNC(=O)c3cnc4nccn4c3)cc2)cc1C`, the concentration for half-maximal inhibition (IC50) came to 5.2 nM on NAMPT (NAMPT enzymatic reaction) and 13 nM in the assay on A2780 cells (SRB).

In the case of `O=C(NCc1ccc(S(=O)(=O)c2ccccc2OCc2ccccc2)cc1)c1cc2cnccc2[nH]1` [N-[(4-{[2-(benzyloxy)benzene]sulfonyl}phenyl)methyl]-1H-pyrrolo[3,2-c]pyridine-2-carboxamide], the IC50 at NAMPT (NAMPT enzymatic reaction) was 18 nM; with A2780 cells (SRB assay), 33 nM.

On to `N#Cc1ccccc1S(=O)(=O)c1ccc(CNC(=O)c2ccc3nccn3c2)cc1`, for which the IC50 at NAMPT (NAMPT enzymatic reaction) was 15.6 nM; with A2780 cells (SRB), 61.3 nM.

As to `CCc1ccccc1S(=O)(=O)c1ccc(CNC(=O)c2cc3ccncc3o2)cc1` [N-({4-[(2-ethylbenzene)sulfonyl]phenyl}methyl)furo[2,3-c]pyridine-2-carboxamide], the IC50 at NAMPT (NAMPT enzymatic reaction) was 5.4 nM; with A2780 cells (SRB), 12.9 nM.

With `O=C(NCc1ccc(S(=O)(=O)c2cnn(-c3cccc(Cl)c3)c2)cc1)c1ccc2nccn2c1` [N-({4-[1-(3-chlorophenyl)-1H-pyrazole-4-sulfonyl]phenyl}methyl)imidazo[1,2-a]pyridine-6-carboxamide], the results for the IC50 on NAMPT (NAMPT enzymatic assay) and in the assay with A2780 cells (SRB) were 14 nM and 6.4 nM, respectively.

In the case of `Cc1ccc(S(=O)(=O)c2ccc(CNC(=O)c3cc4cnccc4[nH]3)cc2)c(F)c1` [N-({4-[(2-fluoro-4-methylbenzene)sulfonyl]phenyl}methyl)-1H-pyrrolo[3,2-c]pyridine-2-carboxamide], the IC50 at NAMPT (NAMPT enzymatic reaction) stood at 11 nM; in the assay with A2780 cells (SRB assay) it was 21 nM.

Turning to `CNS(=O)(=O)c1ccccc1S(=O)(=O)c1ccc(CNC(=O)c2cnc3nccn3c2)cc1`, the IC50 is 30.4 nM at NAMPT (NAMPT enzymatic assay) and 1000 to 10000 nM in the assay on A2780 cells (SRB).

On to `Cc1ccncc1S(=O)(=O)c1ccc(CNC(=O)c2cc3ccncc3s2)cc1` [N-{[4-(4-methylpyridine-3-sulfonyl)phenyl]methyl}thieno[2,3-c]pyridine-2-carboxamide], for which the IC50 on NAMPT (NAMPT enzymatic assay) is 29.2 nM; in the assay on A2780 cells (SRB) it was 22.5 nM.

As to `O=C(NCc1ccc(S(=O)(=O)c2cc(C(F)(F)F)ccc2OCc2ccccc2)cc1)c1cc2cnccc2[nH]1`, the IC50 on NAMPT (NAMPT enzymatic assay) was 130 nM; in the assay on A2780 cells (SRB), 25.9 nM.

`COc1cc(Cl)ccc1S(=O)(=O)c1ccc(CNC(=O)c2cc3ccncc3s2)cc1` [N-({4-[(4-chloro-2-methoxybenzene)sulfonyl]phenyl}methyl)thieno[2,3-c]pyridine-2-carboxamide]: the concentration for half-maximal inhibition (IC50) on NAMPT (NAMPT enzymatic reaction) worked out at 10 nM; in the assay on A2780 cells (SRB assay), 3.8 nM.

Regarding `COc1cccc(S(=O)(=O)c2ccc(CNC(=O)c3cc4ccncc4o3)cc2)c1`, the figures for the IC50 at NAMPT (NAMPT enzymatic reaction) and in the assay with A2780 cells (SRB) were 3.5 nM and 6.9 nM, respectively.

As to `COc1ccc(S(=O)(=O)c2ccc(CNC(=O)c3ccc4nccn4c3)cc2)cc1C` [N-({4-[(4-methoxy-3-methylbenzene)sulfonyl]phenyl}methyl)imidazo[1,2-a]pyridine-6-carboxamide], the IC50 at NAMPT (NAMPT enzymatic reaction) was 14.1 nM; in the assay with A2780 cells (SRB) it was 5.32 nM.

`O=C(NCc1ccc(S(=O)(=O)c2ccccc2C(F)(F)F)cc1)c1cc2cnccc2[nH]1` [N-[(4-{[2-(trifluoromethyl)benzene]sulfonyl}phenyl)methyl]-1H-pyrrolo[3,2-c]pyridine-2-carboxamide]: the figures for the IC50 at NAMPT (NAMPT enzymatic reaction) and with A2780 cells (SRB assay) were 22 nM and 25 nM, respectively.

With `Cc1cc(F)ccc1S(=O)(=O)c1ccc(CNC(=O)c2cc3ccncc3o2)cc1`, the results for the IC50 on NAMPT (NAMPT enzymatic reaction) and in the assay on A2780 cells (SRB) were 18.7 nM and 65.1 nM, respectively.

Turning to `O=C(NCc1ccc(S(=O)(=O)c2cccc(-n3cccn3)c2)cc1)c1cc2cnccc2[nH]1` [N-[(4-{[3-(1H-pyrazol-1-yl)benzene]sulfonyl}phenyl)methyl]-1H-pyrrolo[3,2-c]pyridine-2-carboxamide], the IC50 worked out at 9.7 nM at NAMPT (NAMPT enzymatic assay) and 7.4 nM in the assay with A2780 cells (SRB).

`O=C(NCc1ccc(S(=O)(=O)c2ccc(F)c(C(F)(F)F)c2)cc1)c1ccc2nccn2c1`: the IC50 came out at 4 nM on NAMPT (NAMPT enzymatic assay) and 1.7 nM in the assay with A2780 cells (SRB).
